Test results published in patent US10662159B2, “ABHD6 and dual ABHD6/MGL inhibitors and their uses” (MAKScientific, LLC, priority 2017, dated 2020).

What was measured:
Assay type in all cases: biochemical
hFAAH = hFAAH (Homo sapiens (Human), UniProt O00519); assay: Fluorescent assay for hFAAH; conditions: MBP ΔTM hFAAH, procedure as for rFAAH; read-out: hFAAH Inhibition IC50
Description: (§1) Certain compounds were tested for their ABHD6 and dual ABHD6/MGL inhibitory activity, which is expressed as % of inhibition or IC50 values in Table 1. The percentage of inhibition describes the percentage by which the inhibitor reduces the velocity/rate of 2-AG hydrolysis by ABHD6, and MGL or AEA hydrolysis by FAAH. The IC50 is the concentration of the inhibitor, which results in 50% inhibition of the velocity/rate of 2-AG hydrolysis by ABHD6 or MGL. The IC50 is the concentration of the inhibitor, which results in 50% inhibition of the velocity/rate of AEA hydrolysis by FAAH. The lower the IC50 values, the higher its inhibitory activity. A detailed description of the methods used to test inhibitory activity of compounds is given below.
Example 80. Preparation of Human FAAH in Fusion with N-Terminal Maltose Binding Tag (MBP ΔTM hFAAH)
Human FAAH without putative transmembrane domain following maltose binding protein was expressed in E. coli cells using pMALcE4 vector Alapafuja et al J. Med. Chem. (2012) 55: 10074-89.
(§2) The fluorescence reading at the 3 hour time point (linear enzyme kinetics) was used to calculate percent inhibition based on control assays without inhibitor present. All FAAH assays were performed in triplicate for each inhibitor concentration, and IC50 values determined using Prizm software (GraphPad Software, Inc.).
Example 82. Fluorescent Assay Protocol for hFAAH
Procedure was followed as described for rFAAH.

Rat ΔTM FAAH = Rat ΔTM FAAH (Rattus norvegicus (Rat), UniProt P97612); assay: Fluorescent assay for rat ΔTM FAAH (AAMCA substrate); conditions: ΔTM rFAAH, AAMCA 20 μM; read-out: rFAAH Inhibition IC50
Sequence of Rat ΔTM FAAH (P97612 30-579): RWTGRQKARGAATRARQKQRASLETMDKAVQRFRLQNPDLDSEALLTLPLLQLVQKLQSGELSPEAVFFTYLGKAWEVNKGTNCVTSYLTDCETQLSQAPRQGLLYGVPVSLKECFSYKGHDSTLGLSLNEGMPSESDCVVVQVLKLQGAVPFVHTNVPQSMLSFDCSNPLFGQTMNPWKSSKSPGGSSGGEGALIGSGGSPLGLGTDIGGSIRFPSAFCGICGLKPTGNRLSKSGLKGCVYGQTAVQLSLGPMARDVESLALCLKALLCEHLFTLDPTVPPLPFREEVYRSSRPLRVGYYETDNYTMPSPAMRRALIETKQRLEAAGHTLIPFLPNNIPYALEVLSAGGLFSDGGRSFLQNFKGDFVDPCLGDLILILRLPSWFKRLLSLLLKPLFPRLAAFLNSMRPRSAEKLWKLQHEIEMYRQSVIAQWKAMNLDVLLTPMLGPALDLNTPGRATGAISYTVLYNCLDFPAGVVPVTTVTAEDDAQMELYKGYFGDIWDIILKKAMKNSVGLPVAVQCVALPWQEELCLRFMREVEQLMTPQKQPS
Description: as §1
Example 79. Preparation of Transmembrane Domain-Deleted Rat FAAH (ΔTM rFAAH)
Rat ΔTM FAAH was expressed in E. coli cells and purified using the procedure disclosed by Patricelli et al. Biochemistry (1998) 37: 15177-15187.
Example 81. Fluorescent Assay Protocol for Rat ΔTM FAAH
as §2

hABHD6 = hABHD6 (Homo sapiens (Human), UniProt Q9BV23); assay: Fluorescent assay for hABHD6 (AHMMCE substrate hydrolysis); conditions: membrane fraction containing full-length hABHD6, 20 μM AHMMCE; read-out: ABHD6 Inhibition IC50
Sequence of hABHD6 (Q9BV23 whole entry): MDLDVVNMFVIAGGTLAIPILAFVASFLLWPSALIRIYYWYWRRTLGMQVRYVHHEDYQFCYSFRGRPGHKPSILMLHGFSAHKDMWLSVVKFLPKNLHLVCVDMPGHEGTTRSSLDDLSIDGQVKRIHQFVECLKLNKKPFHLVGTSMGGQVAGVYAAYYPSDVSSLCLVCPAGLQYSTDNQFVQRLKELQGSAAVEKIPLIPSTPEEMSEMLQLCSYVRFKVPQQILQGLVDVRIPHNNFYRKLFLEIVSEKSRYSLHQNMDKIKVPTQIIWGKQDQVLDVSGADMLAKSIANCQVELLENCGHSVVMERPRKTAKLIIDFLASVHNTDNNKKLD
Description: (§3) Certain compounds were tested for their ABHD6 and dual ABHD6/MGL inhibitory activity, which is expressed as % of inhibition or IC50 values in Table 1. The percentage of inhibition describes the percentage by which the inhibitor reduces the velocity/rate of 2-AG hydrolysis by ABHD6, and MGL or AEA hydrolysis by FAAH. […] The lower the IC50 values, the higher its inhibitory activity. A detailed description of the methods used to test inhibitory activity of compounds is given below.
Fluorescent Assays Protocol for hABHD6
Initial Fluorescent Inhibition Assay (3-Point)—
In each well of a 96-well plate 8 μL of membrane fraction containing full-length hABHD6 (1 μg total protein) was mixed with 168 μL of assay buffer (50 mM Tris-HCl, pH 7.6), and 20 μL of diluted compound (diluted in a dilution buffer consisting of 50% DMSO/50% assay buffer v/v). Each plate was incubated at RT for 15 minutes before adding 4 μL of 1 mM AHMMCE substrate (final concentration of 20 μM AHMMCE and final volume of 200 μL). The reaction was allowed to proceed for 1 hr at RT before the fluorescence was read at λex 360 nm and λem 460 nm and the inhibition calculated. Each experiment can test 8 compounds at three concentrations (usually 10 μM, 1 μM, and 100 nM).
IC50 Determination Assay (8-Point)—
A more detailed assay with an extended range tests compounds over 8 concentrations depending on the pre-determined approximate IC50 value from the initial screen. […] The assay was conducted in 96 well plate with each well containing the same reaction mixture detailed above in the 3-point screen. The relative fluorescence is quantified into coumarin produced by using a standard curve of HMMC in triplicate on each plate. Results are normalized to the negative control wells and the IC50 is determined using a non-linear regression curve fit in Prism, version 5 (GraphPad, San Diego, Calif.).

hMGL = hMGL (Homo sapiens (Human), UniProt Q99685); assay: Fluorescent assay for hMGL (AHMMCE substrate hydrolysis); conditions: E. coli lysate containing hMGL, read-out: hMGL Inhibition IC50
Sequence of hMGL (Q99685 whole entry): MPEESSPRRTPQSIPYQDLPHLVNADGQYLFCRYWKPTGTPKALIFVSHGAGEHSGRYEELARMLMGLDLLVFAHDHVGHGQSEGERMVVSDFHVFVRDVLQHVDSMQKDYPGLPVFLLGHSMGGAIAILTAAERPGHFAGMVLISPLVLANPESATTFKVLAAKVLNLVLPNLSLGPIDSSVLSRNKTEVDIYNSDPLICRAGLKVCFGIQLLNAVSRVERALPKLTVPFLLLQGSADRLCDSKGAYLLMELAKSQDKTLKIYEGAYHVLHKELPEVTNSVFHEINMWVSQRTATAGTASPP
Description: as §3
Preparation of Human MAGL (hMAGL)
Fluorescent Assay Protocol for hMGL
This medium throughput assay involved a 96-well plate format in which hMGL activity was monitored by the hydrolysis of the substrate […] (AHMMCE) to form the fluorescent product, coumarin. […] Upon the addition of AHMMCE, the reaction was incubated at 25° C. for 120 min; fluorescence readings were taken every 15 min at 360 nm/460 nm (λexcitation/λemission) using a Synergy HT Plate Reader (Bio-Tek, Winooski, Vt.). […] External standards were used to convert relative fluorescence units to the amount of 4-methylcoumarin formed. All MGL assays were performed in triplicate for each inhibitor concentration, and IC50 values were calculated using Prizm software (GraphPad Software, Inc., San Diego, Calif.).

Sequence of hFAAH (O00519 30-579): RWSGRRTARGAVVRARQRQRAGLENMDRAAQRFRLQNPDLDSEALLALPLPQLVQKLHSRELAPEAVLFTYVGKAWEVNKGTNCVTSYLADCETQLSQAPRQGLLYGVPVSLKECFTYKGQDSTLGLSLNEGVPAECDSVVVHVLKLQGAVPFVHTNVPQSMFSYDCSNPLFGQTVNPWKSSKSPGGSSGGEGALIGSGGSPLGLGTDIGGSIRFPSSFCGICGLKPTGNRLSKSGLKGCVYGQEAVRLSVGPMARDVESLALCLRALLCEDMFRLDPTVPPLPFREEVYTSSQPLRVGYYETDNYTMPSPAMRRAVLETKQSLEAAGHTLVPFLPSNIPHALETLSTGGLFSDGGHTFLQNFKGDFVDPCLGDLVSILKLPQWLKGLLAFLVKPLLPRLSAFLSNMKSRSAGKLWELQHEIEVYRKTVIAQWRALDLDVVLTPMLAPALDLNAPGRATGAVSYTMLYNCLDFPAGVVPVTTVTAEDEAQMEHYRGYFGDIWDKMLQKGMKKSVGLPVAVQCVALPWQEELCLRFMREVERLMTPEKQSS

SMILES	IC50 (hFAAH) [nM]	IC50 (Rat ΔTM FAAH) [nM]	IC50 (hABHD6) [nM]	IC50 (hMGL) [nM]
CC1CN(C(=O)OC(C(F)(F)F)C(F)(F)F)Cc2ccccc21 (stereo not shown) [Example 20, 1,1,1,3,3,3-Hexafluoropropan-2-yl 4-methyl-3,4-dihydroisoquinoline-2(1H)-carboxylate]	> 1000	> 1000	100 to 1000	> 1000
COc1cc2c(cc1OC)CN(C(=O)OC(C(F)(F)F)C(F)(F)F)C2 [Example 21, 1,1,1,3,3,3-Hexafluoropropan-2-yl 5,6-dimethoxyisoindoline-2-carboxylate]	> 1000	> 1000	10 to 100	> 1000
CC1(C)C2C(=O)N(OC(=O)N3CC4(CC(Oc5cccc(C(F)(F)F)c5)C4)C3)C(=O)C21 (stereo not shown) [Example 63, 6,6-Dimethyl-2,4-dioxo-3-azabicyclo[3.1.0]hexan-3-yl 6-(3-(trifluoromethyl)phenoxy)-2-azaspiro[3.3]heptane-2-carboxylate]	> 1000	> 1000	10 to 100	> 1000
O=C(OC(C(F)(F)F)C(F)(F)F)N1CCc2cc(Br)ccc2C1 [Example 17, 1,1,1,3,3,3-Hexafluoropropan-2-yl 6-bromo-3,4-dihydroisoquinoline-2(1H)-carboxylate]	> 1000	> 1000	10 to 100	> 1000
O=C(OC(C(F)(F)F)C(F)(F)F)N1Cc2ccc(Br)cc2C1 [Example 8, 1,1,1,3,3,3-Hexafluoropropan-2-yl 5-bromoisoindoline-2-carboxylate]	> 1000	> 1000	10 to 100	> 1000
O=C(OC(C(F)(F)F)C(F)(F)F)N1CCc2ccccc2[C@@H]1c1ccccc1 [Example 3, 1,1,1,3,3,3-Hexafluoropropan-2-yl (S)-1-phenyl-3,4-dihydroisoquinoline-2(1H)-carboxylate]	> 1000	> 1000	> 1000	> 1000

The next lines start with the values.

IC50 (hFAAH) [nM]	IC50 (Rat ΔTM FAAH) [nM]	IC50 (hABHD6) [nM]	IC50 (hMGL) [nM]	SMILES
> 1000	> 1000	10 to 100	10 to 100	O=C(OC(C(F)(F)F)C(F)(F)F)N1CC2(CC(Oc3cccc(C(F)(F)F)c3)C2)C1 [Example 52, 1,1,1,3,3,3-Hexafluoropropan-2-yl 6-(3-(trifluoromethyl)phenoxy)-2-azaspiro [3.3]heptane-2-carboxylate]
> 1000	> 1000	> 1000	> 1000	O=C(OC(C(F)(F)F)C(F)(F)F)N1CCc2ccccc2[C@H]1c1ccccc1 [Example 2, 1,1,1,3,3,3-Hexafluoropropan-2-yl(R)-1-phenyl-3,4-dihydroisoquinoline-2(1H)-carboxylate]
> 1000	> 1000	> 1000	> 1000	O=C(OC(C(F)(F)F)C(F)(F)F)N1CCCc2ccccc2C1 [Example 24, 1,1,1,3,3,3-Hexafluoropropan-2-yl 1,3,4,5-tetrahydro-2H-benzo[c]azepine-2-carboxylate]
> 1000	> 1000	100 to 1000	> 1000	O=C(OC(C(F)(F)F)C(F)(F)F)N1Cc2ccc(Cl)nc2C1 [Example 14, 1,1,1,3,3,3-Hexafluoropropan-2-yl-2-chloro-5,7-dihydro-6H-pyrrolo[3,4-b]pyridine-6-carboxylate]
